Marks after values point to notes of the source that are not given here.
Experiment: Single ascending dose trial: adverse event and safety monitoring
Type: in vivo, human
Conditions: fasted, n = 6
Description: A single-ascending dose clinical trial of Compound 1 (potassium salt) was performed.

For N#Cc1nn(-c2cc(Cl)c(Oc3n[nH]c(=O)c4ccccc34)c(Cl)c2)c(=O)[nH]c1=O [Compound 2], the “AEs by relationship to drug: Not related” value (single 3 mg dose) was 2 (33.3%), the “AEs by relationship to drug: Possibly related” value (“AEs … Possibly related” for short) (single 3 mg dose) was 0 and the “AEs by relationship to drug: Related” value (single 3 mg dose) was 0. For the same molecule, the “AEs by relationship to drug: Unlikely related” value (“AEs … Unlikely related” for short) (single 3 mg dose) was 0, the “Any AE, all CTCAE grades” value (single 3 mg dose) was 2 (33.3%) and the “CTCAE Grade 1” value (single 3 mg dose) was 0. For the same molecule, the “CTCAE Grade 2” value (single 3 mg dose) was 0, the “CTCAE Grade 3 or higher” value (single 3 mg dose) was 0 and the “Serious AEs” value (single 3 mg dose) was 0. The “AEs by relationship to drug: Not related” value (single 10 mg dose) was 0, the “AEs … Possibly related” value (single 10 mg dose) was 0 and the “AEs by relationship to drug: Related” value (single 10 mg dose) was 0. The “AEs … Unlikely related” value (single 10 mg dose) was 0, the “Any AE, all CTCAE grades” value (single 10 mg dose) was 0 and the “CTCAE Grade 1” value (single 10 mg dose) was 0. For the same molecule, the “CTCAE Grade 2” value (single 10 mg dose) was 0, the “CTCAE Grade 3 or higher” value (single 10 mg dose) was 0 and the “Serious AEs” value (single 10 mg dose) was 0. For the same molecule, the “AEs by relationship to drug: Not related” value (single 30 mg dose) was 1 (16.7%), the “AEs … Possibly related” value (single 30 mg dose) was 1 (16.7%)* and the “AEs by relationship to drug: Related” value (single 30 mg dose) was 0. The “AEs … Unlikely related” value (single 30 mg dose) was 0, the “Any AE, all CTCAE grades” value (single 30 mg dose) was 2 (33.3%) and the “CTCAE Grade 1” value (single 30 mg dose) was 1 (16.7%). For the same molecule, the “CTCAE Grade 2” value (single 30 mg dose) was 1 (16.7%), the “CTCAE Grade 3 or higher” value (single 30 mg dose) was 0 and the “Serious AEs” value (single 30 mg dose) was 0. The “AEs by relationship to drug: Not related” value (single 60 mg dose) was 0, the “AEs … Possibly related” value (single 60 mg dose) was 0 and the “AEs by relationship to drug: Related” value (single 60 mg dose) was 0. The “AEs … Unlikely related” value (single 60 mg dose) was 0, the “Any AE, all CTCAE grades” value (single 60 mg dose) was 0 and the “CTCAE Grade 1” value (single 60 mg dose) was 0. The “CTCAE Grade 2” value (single 60 mg dose) was 0, the “CTCAE Grade 3 or higher” value (single 60 mg dose) was 0 and the “Serious AEs” value (single 60 mg dose) was 0.

From patent US20240293416A1, “TREATMENT OF LIVER DISORDERS WITH A THR-ß AGONIST” (Terns Pharmaceuticals, Inc., priority 2021, published 2024)
